Source: ChEMBL document CHEMBL5244207, “Phenanthrenes: A Promising Group of Plant Secondary Metabolites” (J Nat Prod, 2018)
Converted amounts (≈) assume the structure as drawn. “And” between values parts separate entries of the source, which are not always exact repeats. Equal values may be shown once.

Experiments:
[1] = Antioxidant activity assessed as DPPH radical scavenging activity; type: functional
Mus musculus [2] = test: Anxiolytic activity in mouse assessed as increase in time spent in open arm at 5 mg/kg, po measured after 60 mins by elevated plus maze test; type: functional; settings: 1 h
Mus musculus [3] = test: Anxiolytic activity in mouse assessed as number of entries in open arm at 5 mg/kg, po measured after 60 mins by elevated plus maze test; type: functional; settings: 1 h
[4] = Inhibition of elastase (unknown origin); parameters: species or system Homo sapiens
CT26.WT = test: Cytotoxicity against mouse CT26.WT cells by MTT assay; type: functional, cell-based
Pichia kudriavzevii = test: Antifungal activity against Candida krusei assessed as inhibition of fungal growth measured after 48 hrs by CLSI based agar dilution method; type: functional, organism-based
B16-F10 = test: Cytotoxicity against mouse B16-F10 cells by MTT assay; type: functional, cell-based
CHO = test: Cytotoxicity against CHO cells by MTT assay; type: functional, cell-based; settings: Cricetulus griseus
MeWo = test: Cytotoxicity against human MeWo cells by MTT assay; type: functional, cell-based
HaCaT = test: Antiinflammatory activity against human HaCaT cells assessed as inhibition of PGE2 production; type: functional, cell-based
[5] = Inhibition of H2O2-induced ROS production in human HaCaT cells; type: functional, cell-based
BV-2 = test: Antiinflammatory activity in mouse BV2 cells assessed as reduction in LPS-induced nitric oxide production; type: functional, cell-based
[6] = Antioxidant activity assessed as hydrogen peroxide scavenging activity; type: functional
Staphylococcus aureus [7] = test: Antibacterial activity against Staphylococcus aureus ATCC 29213 assessed as inhibition of bacterial growth; type: functional, organism-based
Staphylococcus aureus [8] = test: Antibacterial activity against Staphylococcus aureus ATCC 25923 assessed as inhibition of bacterial growth; type: functional, organism-based
Staphylococcus aureus [9] = test: Antibacterial activity against Staphylococcus aureus ATCC 43300 assessed as inhibition of bacterial growth; type: functional, organism-based
Trichophyton rubrum [10] = test: Antimicrobial activity against Trichophyton rubrum assessed as inhibition zone at 5 ug/disk; type: functional; settings: read-out: IZ
K562 [11] = test: Cytotoxicity against human K562 cells assessed as reduction in cell viability; type: functional, cell-based
A549 = test: Cytotoxicity against human A549 cells assessed as reduction in cell viability; type: functional, cell-based
HL-60 [12] = test: Cytotoxicity against human HL-60 cells assessed as reduction in cell viability; type: functional, cell-based
RAW264.7 [13] = test: Antiinflammatory activity in mouse RAW264.7 cells assessed as reduction in LPS-induced nitric oxide production; type: functional, cell-based; settings: Mus musculus, RAW264.7
[14] = target: Cyclin-dependent kinase 1/cyclin B (Homo sapiens, UniProt P06493); test: Inhibition of CDK1/Cyclin B (unknown origin) in presence of ATP by scintillation counter analysis; type: protein-complex assay
HL-60 [15] = test: Cytotoxicity against human HL-60 cells assessed as reduction in cell viability by MTT assay; type: functional, cell-based
K562 [16] = test: Induction of cell cycle arrest in human K562 cells measured for 24 hrs; type: functional, cell-based; settings: K562, 24 h
PC-3 = test: Induction of cell cycle arrest in human PC-3 cells measured for 24 hrs; type: functional, cell-based; settings: PC-3, 24 h
RAW264.7 [17] = test: Antiinflammatory activity in mouse RAW 264.7 cells assessed as inhibition of LPS-induced nitric oxide production measured after 48 hrs by Griess reagent assay; type: functional, cell-based; settings: RAW264.7, 48 h
Trichophyton rubrum [18] = test: Antimicrobial activity against Trichophyton rubrum assessed as inhibition zone at 10 ug/disk; type: functional; settings: read-out: IZ
[19] = Antioxidant activity assessed as DPPH radical scavenging activity incubated for 30 mins by spectrophotometric analysis; type: functional
[20] = Antioxidant activity assessed as DPPH radical scavenging activity at 20 uM relative to control; type: functional
[21] = Antioxidant activity assessed as ABTS radical scavenging activity; type: functional
SK-OV-3 = test: Cytotoxicity against human SK-OV-3 cells assessed as reduction in cell viability; type: functional, cell-based

## COc1c(O)cc2ccc3c(OC)c(O)ccc3c2c1OC
[1]; read-out: IC50
  IC50: 12.9 µM

## COc1cc(O)c2c(ccc3cc(O)ccc32)c1-c1c(OC)cc(O)c2c1ccc1cc(O)ccc12
[1]
  IC50: 9.4 µg/mL

## CN1C(=O)CN=C(c2ccccc2)c2cc(Cl)ccc21 [DIAZEPAM]
Mus musculus [2]
  Time: 111.9 s
Mus musculus [3]
  Activity: 13.6

## COc1c(O)cc2c(c1OC)-c1ccc(O)cc1CC2 [ERIANTHRIDIN]
[1]; read-out: IC50
  IC50: 14.9 µM

## O=c1cc(N2CCOCC2)oc2c(-c3ccccc3)cccc12 [LY-294002]
[4]
  IC50: 4.8 µM

## COc1cc2c(c(O)c1C)CCc1c-2ccc(O)c1C=O
CT26.WT
  IC50: 4 µg/mL (≈ 14.1 µM)
Pichia kudriavzevii
  IC50: 31.3 µg/mL (≈ 110 µM)
B16-F10
  IC50: 8 µg/mL (≈ 28.1 µM)
CHO
  IC50: 6 µg/mL (≈ 21.1 µM)
MeWo
  IC50: 5 µg/mL (≈ 17.6 µM)

## COc1cc2c(cc1O)CCc1cc(O)cc(OC)c1-2
HaCaT
  IC50: 19.3 µM
[5]
  IC50: 9.4 µM
BV-2
  IC50: 19.4 µM
[6]
  IC50: 0.04 µM
[1]; read-out: IC50
  IC50: 9 µM

## N=C(N)NN [PIMAGEDINE]
[1]; read-out: IC50
  IC50: 21.7 µM

## COc1cc(O)c(-c2c(O)cc(OC)c3c2ccc2cc(O)ccc23)c2ccc3cc(O)ccc3c12 [CIRRHOPETALANTHIN]
Staphylococcus aureus [7]
  IC50: 6.25 µg/mL (≈ 13.1 µM)
Staphylococcus aureus [8]
  IC50: 6.25 µg/mL (≈ 13.1 µM)
Staphylococcus aureus [9]
  IC50: 6.25 µg/mL (≈ 13.1 µM)

## CC(=O)N1CCN(c2ccc(OCC3COC(Cn4ccnc4)(c4ccc(Cl)cc4Cl)O3)cc2)CC1 (stereo not given) [KETOCONAZOLE]
Trichophyton rubrum [10]
  zone of inhibition at 5 µg/disc: 15.7 mm

## COc1ccc2ccc3ccc(O[C@@H]4O[C@H](CO)[C@@H](O)[C@H](O)[C@H]4O)c(O)c3c2c1
BV-2
  IC50: 10.6 µg/mL
[1]; read-out: IC50
  IC50: 0.2 µM

## Oc1cc2c3c(c1)COc1cc(O)cc(c1-3)CC2
[6]
  IC50: 0.08 µM
[1]; read-out: IC50
  IC50: 6.6 µM

## COc1cc(O)c2c(c1)CCc1cc(-c3cc(OC)c4c(c3O)CCc3cc(O)ccc3-4)c(O)cc1-2
K562 [11]
  IC50: 6.1 µM
A549
  IC50: 9.2 µM
HL-60 [12]; hl-60
  IC50: 1.3 µM

## C=Cc1cc(O)cc2c1-c1ccc(O)c(C)c1CC2 [EFFUSOL]
RAW264.7 [13]
  IC50: 15.1 µM
Mus musculus [2]
  Time: 75.5 s
Mus musculus [3]
  Activity: 7.8

## COc1cc(O)c2c(c1)CCc1c-2ccc(OC)c1O
[1]
  EC50: 27.7 µM
[1]; read-out: IC50
  IC50: 27.7 µM

## OC[C@H]1O[C@@H](O[C@H]2[C@H](O)[C@@H](O)[C@H](Oc3ccc4ccc5ccc(O)cc5c4c3O)O[C@@H]2CO)[C@H](O)[C@@H](O)[C@@H]1O
BV-2
  IC50: 15.3 µg/mL

## COc1cc2c(c(O)c1OC)CCc1cc(O)c(OC)c(OC)c1-2
[14]
  IC50: 0.07 µM

## COc1ccc(O)c(C(C)(C)C)c1.COc1ccc(O)cc1C(C)(C)C [BUTYLATED HYDROXYANISOLE]
[1]
  IC50: 9.3 µg/mL

## COC1=C(OC)C(=O)c2c(ccc3cccc(O)c23)C1=O
HL-60 [15]
  IC50: 4.7 µM

## COC1=CC(=O)c2ccc3cc(OC)cc(O)c3c2C1=O [DENBINOBIN]
K562 [16]
  IC50: 1.8 µM
PC-3
  IC50: 7.5 µM

## COc1cc(O)cc2c1-c1ccc(O)cc1CC2
[6]
  IC50: 0.08 µM
[1]; read-out: IC50
  IC50: 16.7 µM and 8.5 µM

## Oc1ccc(/C=C/c2cc(O)cc(O)c2)cc1 [RESVERATROL]
[1]
  EC50: 21.2 µM
[1]; read-out: IC50
  IC50: 28.7 µM

## Cc1c(C)c2c(c(C)c1O)CCC(C)(C(=O)O)O2 (stereo not given) [TROLOX]
[1]; read-out: IC50
  IC50: 11.7 µM

## COc1cc(O)c2c(c1-c1c(OC)cc(O)c3c1ccc1cc(O)ccc13)CCc1cc(O)ccc1-2
HL-60 [12]; Homo sapiens, HL-60, read-out: IC50
  IC50: 7.3 µg/mL
[1]
  IC50: 15.1 µg/mL

## COc1cc(O)c2c(c1)CCc1cc(O)cc(O)c1-2
[1]; read-out: IC50
  IC50: 10.2 µM

## COc1cc(O)c2c(c1Cc1ccc(O)cc1)CCc1cc(O)ccc1-2
[1]
  IC50: 12.2 µg/mL

## COc1cc(O)c2c(c1)CCc1cc(O)ccc1-2 [LUSIANTHRIDIN]
RAW264.7 [17]
  IC50: 4.6 µM
[1]
  EC50: 22.3 µM
[1]; read-out: IC50
  IC50: 62.2 µM and 22.3 µM

## COc1cc2c(c(OC)c1O)-c1c(ccc(O)c1O)CC2
Trichophyton rubrum [18]
  zone of inhibition at 10 µg/disc: 12.7 mm

## COc1cc(O)cc2ccc3cccc(O)c3c12 [MOSCATIN]
[1]; read-out: IC50
  IC50: 9.2 µM

## COc1cc(O)c(-c2cc3c(cc2O)CCc2cc(OC)cc(O)c2-3)c(CCc2cccc(O)c2)c1
[1]
  EC50: 55.9 µM

## O=C1O[C@H]([C@@H](O)CO)C(O)=C1O [ASCORBIC ACID]
[19]
  IC50: 0.41 µM
[20]
  Activity: 2.9%
[21]
  Activity: 88.7%
[1]; read-out: IC50
  IC50: 18 µM

## COc1cc(O)c2c(c1)CCc1cc(O)c(-c3c(OC)cc(O)c4c3CCc3c-4ccc(O)c3-c3c(OC)cc(O)c4c3CCc3cc(O)ccc3-4)cc1-2
SK-OV-3
  IC50: 41.5 µg/mL (≈ 57.4 µM)
[1]
  IC50: 4.8 µg/mL
